Results on 44 compounds are retold here after US11440907B1 (Merck Patent GmbH, priority 2018, dated 2022).

The test system of the first assay is β-catenin-TCF-mediated reporter transcription activity in Colo 205 cells. Kind of assay: Colo 205 reporter assay (TCF/LEF promoter-driven firefly luciferase). The assay is classed as cell-based. The settings on record: Colo 205 TCF/LEF luciferase reporter, 5 hours after compound addition, 384 well; read-out: Colo205 IC50. The source says:
The compounds of the invention described herein were screened using the assay procedure for β-catenin-TCF-mediated reporter transcription activity described below.
Reporter cell lines were generated by stably transfecting cells of cancer cell lines (e.g., colon cancer) with a plasmid reporter construct (From SABiosciences, a QIAGEN company) that includes TCF/LEF promoter driving expression of the firefly luciferase gene. TCF/LEF reporter constructs were made in which TCF/LEF promoter, a promoter with optimal number of TCF/LEF binding sites designed by SABiosciences, was linked upstream of the firefly luciferase gene. This construct could also include a puromycin resistance gene as a selectable marker. This construct could also be used to stably transfect Colo 205 cells, a colon cancer cell line having a mutated APC gene that causes a constitutively active β-catenin. A control cell line was generated using another plasmid construct containing the luciferase gene under the control of a CMV basal promoter which is not activated by β-catenin.
Colo 205 Cultured cells with a stably transfected reporter construct were plated at approximately 10,000 cells per well into 384 well multi-well plates for twenty four hours. The testing compounds were then added to the wells in 2-fold serial dilutions using a twenty micromolar top concentration. A series of control wells for each cell type received only compound solvent. Five hours after the addition of compound, reporter activity for luciferase was assayed, by addition of the SteadyGlo luminescence reagent (Promega). The reporter luminescence activity was measured using Pherastar plate reader (BMG Labtech). Readings were normalized to DMSO only treated cells, and normalized activities were then used in the IC50 calculations. The Colo 205 reporter assay data are summarized in Table 3: A<0.3 μM; 0.3 μM≤B<1.0 μM; 1.0 μM≤C<5.0 μM; D≥5.0 μM.
On the technique in general: In a reporter assay the amount or activity of a reporter protein is the signal.
One may read the IC50 as the concentration that inhibits the measured activity by half. In the case of `Cc1cc(N2CCCOCC2c2cc([S+](C)[O-])ccc2Cl)nc(N)n1` (stereo not drawn) [I-123], the IC50 is 300 to 1000 nM.

The same assay, now with this note: Homo sapiens; Colo 205 TCF/LEF luciferase reporter, 5 hours after compound addition, 384 well; read-out: Colo205 IC50.
As for `Cc1cc(N2CCCOC[C@@H]2c2ccc(N3CCN(C)CC3)cc2Cl)nc(N)n1` [I-275, (S)-4-[3-[2-chloro-4-(4-methylpiperazin-1-yl)phenyl]-1,4-oxazepan-4-yl]-6-methyl-pyrimidin-2-amine], the IC50 lay in the range of 300 to 1000 nM. The same measure, in the same setting: in the case of `Cc1cc(N2CCCOCC2c2cc(NC(=O)OC(C)(C)C)ccc2Cl)nc(N)n1` (stereo not drawn) [I-158] it was 300 to 1000 nM; in that of `COC(=O)c1ccc(Cl)c(C2COCCCN2c2cc(C)nc(N)n2)c1` (racemic) [I-126, (+/−)-Methyl 3-(4-(2-amino-6-methylpyrimidin-4-yl)-1,4-oxazepan-3-yl)-4-chlorobenzoate], 300 to 1000 nM; in that of `COc1ccc(Cl)c([C@H]2CCCCCN2c2cc(C)nc(N)n2)c1` (single isomer, unassigned) [I-135], 300 to 1000 nM. On the same count and under the same terms, to `Cc1cc(N2CCCOC[C@@H]2c2ccc(C(=O)N(C)C)cc2Cl)nc(N)n1` (single isomer, unassigned) [I-144] belongs 300 to 1000 nM; to `Cc1cc(N2CCCOCC2c2cc3c(cc2Cl)OCO3)nc(N)n1` (racemic) [I-113, (+/−)-4-[3-(6-chloro-1,3-benzodioxol-5-yl)-1,4-oxazepan-4-yl]-6-methyl-pyrimidin-2-amine], 300 to 1000 nM; to `Cc1cc(N2CCCOCC2c2ccccc2F)nc(N)n1` (racemic) [I-32, (+/−)-4-[3-(2-fluorophenyl)-1,4-oxazepan-4-yl]-6-methyl-pyrimidin-2-amine], below 300 nM. The same measure, in the same setting: in the case of `CC(=O)Nc1ccc(Cl)c(C2COCCCN2c2cc(C)nc(N)n2)c1` (stereo not drawn) [I-84] it was below 300 nM; in that of `Cc1cc(N2CCCOCC2c2cc(-c3ccn[nH]3)ccc2Cl)nc(N)n1` (racemic) [I-157, (+/−)-4-(3-(2-chloro-5-(1H-pyrazol-5-yl)phenyl)-1,4-oxazepan-4-yl)-6-methyl-pyrimidin-2-amine], 300 to 1000 nM. Consider `COc1ccc(Cl)cc1[C@H]1COCCCN1c1cc(C)nc(N)n1` [I-132, (S)-4-(3-(5-chloro-2-methoxyphenyl)-1,4-oxazepan-4-yl)-6-methylpyrimidin-2-amine], for which the IC50 was 300 to 1000 nM. Turning to `Cc1cc(N2CCCOCC2c2ccccc2Cl)nc(N)n1` (racemic) [I-19, (+/−)-4-[3-(2-chlorophenyl)-1,4-oxazepan-4-yl]-6-methyl-pyrimidin-2-amine], the IC50 is below 300 nM. On the same count and under the same terms, to `Cc1cc(N2CCCOCC2c2ccc(-n3cccn3)cc2Cl)nc(N)n1` (racemic) [I-133, (+/−)-4-(3-(2-chloro-4-(1H-pyrazol-1-yl)phenyl)-1,4-oxazepan-4-yl)-6-methylpyrimidin-2-amine] belongs 300 to 1000 nM; to `Cc1cc(N2CCCOC[C@@H]2c2ccc(C#N)cc2Cl)nc(N)n1` (single isomer, unassigned) [I-97], 300 to 1000 nM. `COc1cc(S(C)(=O)=O)ccc1C1CCCCCN1c1cc(C)nc(N)n1` (racemic) [I-88, (+/−)-4-(2-(2-methoxy-4-(methylsulfonyl)phenyl)azepan-1-yl)-6-methylpyrimidin-2-amine]: the IC50 lay within 300 to 1000 nM.

As to `COc1ccc(F)cc1C1COCCCN1c1cc(C)nc(N)n1` (stereo not drawn) [I-284], the IC50 is 300 to 1000 nM. On to `Cc1cc(N2CCCCCC2c2ccccc2F)nc(N)n1` (stereo not drawn) [I-36, 4-(2-(2-fluorophenyl)azepan-1-yl)-6-methylpyrimidin-2-amine], for which the IC50 is 300 to 1000 nM. Same read-out and setting: to `Cc1cc(N2CCCOCC2c2cc(O)ccc2Cl)nc(N)n1` (racemic) [I-147, (+/−)-3-[4-(2-amino-6-methyl-pyrimidin-4-yl)-1,4-oxazepan-3-yl]-4-chloro-phenol] belongs below 300 nM; to `CNC(=O)c1ccc(OC)c([C@H]2CCCCCN2c2cc(C)nc(N)n2)c1` [I-148, (R)-3-(1-(2-amino-6-methylpyrimidin-4-yl)azepan-2-yl)-4-methoxy-N-methylbenzamide], below 300 nM. Still for that read-out and setting: to `Cc1cc(N2CCCOCC2c2cc([N+](=O)[O-])ccc2Cl)nc(N)n1` (stereo not drawn) [I-72, 4-(3-(2-chloro-5-nitrophenyl)-1,4-oxazepan-4-yl)-6-methylpyrimidin-2-amine] belongs 300 to 1000 nM.

Turning to `COc1cc(F)c(F)cc1C1COCCCN1c1cc(C)nc(N)n1` (stereo not drawn) [I-286], the IC50 lay within 300 to 1000 nM.

With `Cc1cc(N2CCC(C)OCC2c2ccccc2Cl)nc(N)n1` (stereo not drawn) [I-301], the IC50 was below 300 nM. Still for that read-out and setting: to `Cc1cc(N2CCCOC[C@@H]2c2cc(N)ccc2Cl)nc(N)n1` (single isomer, unassigned) [I-87] belongs below 300 nM; to `CNC(=O)c1ccc(C2COCCCN2c2cc(C)nc(N)n2)c(Cl)c1` (stereo not drawn) [I-106], below 300 nM; to `Cc1cc(N2CCCOCC2c2ccc(C(=O)N3CCCC3)cc2Cl)nc(N)n1` (racemic) [I-151, (+/−)-(4-(4-(2-amino-6-methylpyrimidin-4-yl)-1,4-oxazepan-3-yl)-3-chlorophenyl)(pyrrolidin-1-yl)methanone], 300 to 1000 nM.

Take `COc1ccc(OC)c(C2COCCCN2c2cc(C)nc(N)n2)c1` (racemic) [I-93, (+/−)-4-[3-(2,5-dimethoxyphenyl)-1,4-oxazepan-4-yl]-6-methyl-pyrimidin-2-amine]: the IC50 lay in the range of 300 to 1000 nM. The same measure, in the same setting: to `Cc1cc(Nc2ccc(Cl)c(C3COCCCN3c3cc(C)nc(N)n3)c2)nc(N)n1` (stereo not drawn) [I-294] belongs 300 to 1000 nM; to `COc1ccc(O)cc1[C@H]1CCCCCN1c1cc(C)nc(N)n1` (single isomer, unassigned) [I-127], below 300 nM; to `Cc1cc(N2CCCOCC2c2ccc(C(=O)N(C)C)cc2Cl)nc(N)n1` (stereo not drawn) [I-293], 300 to 1000 nM. Same read-out and setting: in the case of `COc1ccc(OC)c([C@H]2COCCCN2c2cc(C)nc(N)n2)c1` (single isomer, unassigned) [I-101] it was below 300 nM; in that of `CC(=O)Nc1ccc(C2COCCCN2c2cc(C)nc(N)n2)c(Cl)c1` (racemic) [I-141, (+/−)-N-(4-(4-(2-amino-6-methylpyrimidin-4-yl)-1,4-oxazepan-3-yl)-3-chlorophenyl)acetamide], below 300 nM; in that of `COc1ccc(C(=O)N(C)C)cc1C1CCCCCN1c1cc(C)nc(N)n1` (racemic) [I-115, (+/−)-3-(1-(2-amino-6-methylpyrimidin-4-yl)azepan-2-yl)-4-methoxy-N,N-dimethylbenzamide], 300 to 1000 nM. On to `Cc1cc(N2CCCOCC2c2cc([S+](C)[O-])ccc2Cl)nc(N)n1` (stereo not drawn) [I-122], for which the IC50 was in the range of 300 to 1000 nM. Same read-out and setting: in the case of `COCC(=O)Nc1ccc(Cl)c(C2COCCCN2c2cc(C)nc(N)n2)c1` (stereo not drawn) [I-90] it was 300 to 1000 nM; in that of `Cc1cc(N2CCCOC[C@H]2c2cc(C(O)C(F)(F)F)ccc2Cl)nc(N)n1` (single isomer, unassigned) [I-146], 300 to 1000 nM; in that of `Cc1cc(N2CCCOCC2c2ccc(N)cc2Cl)nc(N)n1` (racemic) [I-140, (+/−)-4-[3-(4-amino-2-chloro-phenyl)-1,4-oxazepan-4-yl]-6-methyl-pyrimidin-2-amine], below 300 nM.

As for `Cc1cc(N2CCCOCC2c2ccc(NS(C)(=O)=O)cc2Cl)nc(N)n1` (racemic) [I-139, (+/−)-N-[4-[4-(2-amino-6-methyl-pyrimidin-4-yl)-1,4-oxazepan-3-yl]-3-chloro-phenyl]methanesulfonamide], the half-inhibitory concentration (IC50) was in the range of 300 to 1000 nM. On the same count and under the same terms, in the case of `Cc1cc(N2CCCOCC2c2cc([S+](C)[O-])ccc2Cl)nc(N)n1` (racemic) [I-110, (+/−)-4-(3-(2-chloro-5-(methylsulfinyl)phenyl)-1,4-oxazepan-4-yl)-6-methylpyrimidin-2-amine] it was 300 to 1000 nM; in that of `COC(=O)c1ccc(C2COCCCN2c2cc(C)nc(N)n2)c(OC)c1` (stereo not drawn) [I-290], 300 to 1000 nM; in that of `Cc1cc(N2CCCOCC2c2ccc(S(C)(=O)=O)cc2Cl)nc(N)n1` (racemic) [I-66, (+/−)-4-(3-(2-chloro-4-(methylsulfonyl)phenyl)-1,4-oxazepan-4-yl)-6-methylpyrimidin-2-amine], 1000 to 5000 nM.

With `COC(=O)c1ccc(C2COCCCN2c2cc(C)nc(N)n2)c(Cl)c1` (stereo not drawn) [I-292], the IC50 was in the range of 300 to 1000 nM.

For `COC(=O)c1ccc(OC)c(C2CCCCCN2c2cc(C)nc(N)n2)c1` (racemic) [I-111, (+/−)-Methyl 3-(1-(2-amino-6-methylpyrimidin-4-yl)azepan-2-yl)-4-methoxybenzoate], the IC50 was 300 to 1000 nM. On the same count and under the same terms, in the case of `Cc1cc(N2CCCOCC2c2ccc(C(=O)N(C)C3CCOCC3)cc2Cl)nc(N)n1` (racemic) [I-153, (+/−)-4-(4-(2-amino-6-methylpyrimidin-4-yl)-1,4-oxazepan-3-yl)-3-chloro-N-methyl-N-(tetrahydro-2H-pyran-4-yl)benzamide] it was 300 to 1000 nM; in that of `COc1cc(S(C)(=O)=O)ccc1[C@H]1CCCCCN1c1cc(C)nc(N)n1` (single isomer, unassigned) [I-99, 4-[2-(2-methoxy-4-methylsulfonyl-phenyl)azepan-1-yl]-6-methyl-pyrimidin-2-amine], below 300 nM.

A further assay has as its system XBP1(u)-luciferase splicing reporter in HepG2 hepatoma cells. The experiment in a line: HepG2 XBP1 reporter assay (XBP1(u)-Luc). The settings on record: Homo sapiens, 6 hours after compound addition, Table 3, read-out: XBP1-luc HepG2 1 EC50. In kind it is cell-based.
By EC50 is commonly meant the midpoint of the concentration-response curve. As to `Cc1cc(N2CCCOC[C@@H]2c2ccc(N3CCN(C)CC3)cc2Cl)nc(N)n1` [I-275, (S)-4-[3-[2-chloro-4-(4-methylpiperazin-1-yl)phenyl]-1,4-oxazepan-4-yl]-6-methyl-pyrimidin-2-amine], the EC50 is below 600 nM.
